Assay results as given in PubChem BioAssay AID1963964 (Molecular Pharmacology Branch, DTP, NCI, 2024).
Blank lines part the entries; values can stand above or below the compound they belong to.

Tested on: 997726-040-R-J2-PDC tumor spheroids, viability
Experiment: Anticancer human tumor 997726-040-R-J2-PDC patient-derived squamous cell lung carcinoma cell line growth inhibition [PI3K]
Details: spheroids with HUVEC and MSC; for IC50: curve of first compound; for viability, T/C: stronger effect = lower value
Procedure, shortened: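 Viability of mixed-cell spheroids was determined after exposure to pairwise combinations, one partner being inavolisib, alpelisib, duvelisib or copanlisib. Highest tested concentration matched clinical Cmax where known and 10 microM where not, descending in half-log steps.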

[1] = second compound 0.0316 µM, first compound 0.0316 µM
[2] = second compound 0.0316 µM, first compound 0.1 µM
[3] = second compound 0.0316 µM, first compound 0.316 µM
[4] = second compound 0.0316 µM, first compound 1 µM
[5] = second compound 0.0316 µM, first compound 3.16 µM
[6] = second compound 0.0316 µM, first compound 10 µM
[7] = second compound 0.1 µM, first compound 0.0316 µM
[8] = second compound 0.1 µM, first compound 0.1 µM
[9] = second compound 0.1 µM, first compound 0.316 µM
[10] = second compound 0.1 µM, first compound 1 µM
[11] = second compound 0.1 µM, first compound 3.16 µM
[12] = second compound 0.1 µM, first compound 10 µM
[13] = second compound 0.316 µM, first compound 0.0316 µM
[14] = second compound 0.316 µM, first compound 0.1 µM
[15] = second compound 0.316 µM, first compound 0.316 µM
[16] = second compound 0.316 µM, first compound 1 µM
[17] = second compound 0.316 µM, first compound 3.16 µM
[18] = second compound 0.316 µM, first compound 10 µM
[19] = second compound 1 µM, first compound 0.0316 µM
[20] = second compound 1 µM, first compound 0.1 µM
[21] = second compound 1 µM, first compound 0.316 µM
[22] = second compound 1 µM, first compound 1 µM
[23] = second compound 1 µM, first compound 3.16 µM
[24] = second compound 1 µM, first compound 10 µM
[25] = second compound 3.16 µM, first compound 0.0316 µM
[26] = second compound 3.16 µM, first compound 0.1 µM
[27] = second compound 3.16 µM, first compound 0.316 µM
[28] = second compound 3.16 µM, first compound 1 µM
[29] = second compound 3.16 µM, first compound 3.16 µM
[30] = second compound 3.16 µM, first compound 10 µM
[31] = second compound 10 µM, first compound 0.0316 µM
[32] = second compound 10 µM, first compound 0.1 µM
[33] = second compound 10 µM, first compound 0.316 µM
[34] = second compound 10 µM, first compound 1 µM
[35] = second compound 10 µM, first compound 3.16 µM
[36] = second compound 10 µM, first compound 10 µM
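Further: spheroids exposed to compounds for seven days before readout.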

IC50 (second compound 0.0316 µM): > 10000 nM
IC50 (second compound 0.1 µM): > 10000 nM
IC50 (second compound 0.316 µM): > 10000 nM
IC50 (second compound 1 µM): < 31.6 nM
IC50 (second compound 3.16 µM): < 31.6 nM
IC50 (second compound 10 µM): < 31.6 nM
SMILES: C=CC(=O)N1CCN(c2nc(=O)n(-c3c(C)ccnc3C(C)C)c3nc(-c4c(O)cccc4F)c(F)cc23)C(C)C1 (stereo not drawn) + Cc1nc(NC(=O)N2CCCC2C(N)=O)sc1-c1ccnc(C(C)(C)C(F)(F)F)c1
viability, T/C [1]: 82.8%
viability, T/C [2]: 84.3%
viability, T/C [3]: 101%
viability, T/C [4]: 108%
viability, T/C [5]: 102%
viability, T/C [6]: 109%
viability, T/C [7]: 76.3%
viability, T/C [8]: 72.7%
viability, T/C [9]: 71.1%
viability, T/C [10]: 86.8%
viability, T/C [11]: 101%
viability, T/C [12]: 89.3%
viability, T/C [13]: 53.3%
viability, T/C [14]: 55.9%
viability, T/C [15]: 61%
viability, T/C [16]: 59.5%
viability, T/C [17]: 63.6%
viability, T/C [18]: 65.6%
viability, T/C [19]: 40.8%
viability, T/C [20]: 41.8%
viability, T/C [21]: 45%
viability, T/C [22]: 39.8%
viability, T/C [23]: 52%
viability, T/C [24]: 46.2%
viability, T/C [25]: 30.9%
viability, T/C [26]: 28.6%
viability, T/C [27]: 33.6%
viability, T/C [28]: 28.6%
viability, T/C [29]: 34.1%
viability, T/C [30]: 32.2%
viability, T/C [31]: 16.2%
viability, T/C [32]: 16%
viability, T/C [33]: 15.9%
viability, T/C [34]: 17.4%
viability, T/C [35]: 22%
viability, T/C [36]: 9.67%

IC50 (second compound 0.0316 µM): > 1000 nM
IC50 (second compound 0.1 µM): 466 nM
IC50 (second compound 0.316 µM): 7.34 nM
IC50 (second compound 1 µM): < 3.16 nM
IC50 (second compound 3.16 µM): < 3.16 nM
IC50 (second compound 10 µM): < 3.16 nM
SMILES: CCN1CCN(Cc2ccc(Nc3ncc(F)c(-c4cc(F)c5nc(C)n(C(C)C)c5c4)n3)nc2)CC1 + Cc1nc(NC(=O)N2CCCC2C(N)=O)sc1-c1ccnc(C(C)(C)C(F)(F)F)c1
viability, T/C (second compound 0.0316 µM, first compound 0.00316 µM): 82.8%
viability, T/C (second compound 0.0316 µM, first compound 0.01 µM): 79.5%
viability, T/C [1]: 61.5%
viability, T/C [2]: 69.5%
viability, T/C [3]: 58.3%
viability, T/C [4]: 59.8%
viability, T/C (second compound 0.1 µM, first compound 0.00316 µM): 76.7%
viability, T/C (second compound 0.1 µM, first compound 0.01 µM): 71.1%
viability, T/C [7]: 67.3%
viability, T/C [8]: 55.2%
viability, T/C [9]: 52.3%
viability, T/C [10]: 46.3%
viability, T/C (second compound 0.316 µM, first compound 0.00316 µM): 52.5%
viability, T/C (second compound 0.316 µM, first compound 0.01 µM): 51.8%
viability, T/C [13]: 45%
viability, T/C [14]: 39%
viability, T/C [15]: 37.1%
viability, T/C [16]: 41.1%
viability, T/C (second compound 1 µM, first compound 0.00316 µM): 40.8%
viability, T/C (second compound 1 µM, first compound 0.01 µM): 39.5%
viability, T/C [19]: 37%
viability, T/C [20]: 30.9%
viability, T/C [21]: 29%
viability, T/C [22]: 33.8%
viability, T/C (second compound 3.16 µM, first compound 0.00316 µM): 29.9%
viability, T/C (second compound 3.16 µM, first compound 0.01 µM): 27%
viability, T/C [25]: 26%
viability, T/C [26]: 22.9%
viability, T/C [27]: 23.4%
viability, T/C [28]: 19.5%
viability, T/C (second compound 10 µM, first compound 0.00316 µM): 16.9%
viability, T/C (second compound 10 µM, first compound 0.01 µM): 12.3%
viability, T/C [31]: 10.3%
viability, T/C [32]: 10.9%
viability, T/C [33]: 11.9%
viability, T/C [34]: 11.2%

IC50 (second compound 0.0316 µM): 96.7 nM
IC50 (second compound 0.1 µM): 77.4 nM
IC50 (second compound 0.316 µM): 32.1 nM
IC50 (second compound 1 µM): < 31.6 nM
IC50 (second compound 3.16 µM): < 31.6 nM
IC50 (second compound 10 µM): < 31.6 nM
SMILES: Cn1ncc(Cl)c1-c1cc(C(=O)NC(CN)Cc2cccc(F)c2)sc1Cl (stereo not drawn) + Cc1nc(NC(=O)N2CCCC2C(N)=O)sc1-c1ccnc(C(C)(C)C(F)(F)F)c1
viability, T/C [1]: 68%
viability, T/C [2]: 49.7%
viability, T/C [3]: 23.7%
viability, T/C [4]: 11.6%
viability, T/C [5]: 9.66%
viability, T/C [6]: 5.52%
viability, T/C [7]: 65.4%
viability, T/C [8]: 45.7%
viability, T/C [9]: 25%
viability, T/C [10]: 13%
viability, T/C [11]: 9.73%
viability, T/C [12]: 6.2%
viability, T/C [13]: 50%
viability, T/C [14]: 37.7%
viability, T/C [15]: 22.5%
viability, T/C [16]: 11.7%
viability, T/C [17]: 9.53%
viability, T/C [18]: 3.13%
viability, T/C [19]: 39.9%
viability, T/C [20]: 35.2%
viability, T/C [21]: 21.6%
viability, T/C [22]: 11.3%
viability, T/C [23]: 8.3%
viability, T/C [24]: 2.53%
viability, T/C [25]: 25.3%
viability, T/C [26]: 22.5%
viability, T/C [27]: 13.9%
viability, T/C [28]: 10%
viability, T/C [29]: 6.18%
viability, T/C [30]: 1.9%
viability, T/C [31]: 15%
viability, T/C [32]: 11.3%
viability, T/C [33]: 7.08%
viability, T/C [34]: 4.6%
viability, T/C [35]: 3.71%
viability, T/C [36]: 1.05%

IC50 (second compound 0.0316 µM): 6270 nM
IC50 (second compound 0.1 µM): 307 nM
IC50 (second compound 0.316 µM): 59.9 nM
IC50 (second compound 1 µM): < 31.6 nM
IC50 (second compound 3.16 µM): < 31.6 nM
IC50 (second compound 10 µM): < 31.6 nM
SMILES: Cn1nccc1Nc1nccc(-c2ccn(C(CO)c3ccc(Cl)c(F)c3)c(=O)c2)n1 (stereo not drawn) + Cc1nc(NC(=O)N2CCCC2C(N)=O)sc1-c1ccnc(C(C)(C)C(F)(F)F)c1
viability, T/C [1]: 72.8%
viability, T/C [2]: 72.3%
viability, T/C [3]: 63.3%
viability, T/C [4]: 65.4%
viability, T/C [5]: 55%
viability, T/C [6]: 46.1%
viability, T/C [7]: 64.7%
viability, T/C [8]: 75.7%
viability, T/C [9]: 48.3%
viability, T/C [10]: 52%
viability, T/C [11]: 49.3%
viability, T/C [12]: 48.1%
viability, T/C [13]: 55.4%
viability, T/C [14]: 44.4%
viability, T/C [15]: 43%
viability, T/C [16]: 34.9%
viability, T/C [17]: 38.7%
viability, T/C [18]: 33%
viability, T/C [19]: 41.9%
viability, T/C [20]: 36.8%
viability, T/C [21]: 32.7%
viability, T/C [22]: 30.2%
viability, T/C [23]: 28%
viability, T/C [24]: 23.3%
viability, T/C [25]: 29.8%
viability, T/C [26]: 27.7%
viability, T/C [27]: 23.2%
viability, T/C [28]: 28.3%
viability, T/C [29]: 27%
viability, T/C [30]: 16.1%
viability, T/C [31]: 17.1%
viability, T/C [32]: 12.8%
viability, T/C [33]: 15.8%
viability, T/C [34]: 14.3%
viability, T/C [35]: 17.2%
viability, T/C [36]: 7.87%
